Among the data in BindingDB's records for doi:10.1007/s00044-010-9334-1 (n/a, 2011) are EC50 values, retold here.

A word on the EC50: it is the concentration needed to bring the measured effect to its halfway point.

This experiment in a line: Inhibition of microtubule polymerisation in Rattus norvegicus (rat) A10 cells.

`COc1cc(OC)c(C2C=C(c3cc(OC)ccc3OC)NC(=S)N2)c(OC)c1` (configuration not stated) came in with an EC50 of 2.9 µM. In other words, the single-digit micromolar range. Next, `COc1ccc(C2C=C(c3cc(OC)c(OC)c(OC)c3)NC(=S)N2)cc1O` (configuration not stated): 4.4 µM.
